From patent US11168095B2, “ASK1 inhibiting agents” (BIOGEN MA INC., priority 2017, dated 2021)
pIC50: −log10 of the molar value.

What was measured:
[1] = target: ASK1 T838 auto phosphorylation in HEK-293T cells (Homo sapiens (Human), UniProt Q99683); assay: ASK1 (AUTO PHOS T838) assay, MSD format; format: cell-based; conditions: HEK 293T cells transfected with ASK1-V5 full length plasmid, compounds 1 hr at 37° C.; read-out: IC50
[2] = target: ASK1/MAP3K5 (Homo sapiens (Human), UniProt Q99683); assay: ASK1/MAP3K5 assay by Reaction Biology Corp.; format: biochemical; conditions: 20 μM myelin basic protein (MBP), 10 μM ATP
ASK1/MAP3K5, sequence (Q99683 whole entry): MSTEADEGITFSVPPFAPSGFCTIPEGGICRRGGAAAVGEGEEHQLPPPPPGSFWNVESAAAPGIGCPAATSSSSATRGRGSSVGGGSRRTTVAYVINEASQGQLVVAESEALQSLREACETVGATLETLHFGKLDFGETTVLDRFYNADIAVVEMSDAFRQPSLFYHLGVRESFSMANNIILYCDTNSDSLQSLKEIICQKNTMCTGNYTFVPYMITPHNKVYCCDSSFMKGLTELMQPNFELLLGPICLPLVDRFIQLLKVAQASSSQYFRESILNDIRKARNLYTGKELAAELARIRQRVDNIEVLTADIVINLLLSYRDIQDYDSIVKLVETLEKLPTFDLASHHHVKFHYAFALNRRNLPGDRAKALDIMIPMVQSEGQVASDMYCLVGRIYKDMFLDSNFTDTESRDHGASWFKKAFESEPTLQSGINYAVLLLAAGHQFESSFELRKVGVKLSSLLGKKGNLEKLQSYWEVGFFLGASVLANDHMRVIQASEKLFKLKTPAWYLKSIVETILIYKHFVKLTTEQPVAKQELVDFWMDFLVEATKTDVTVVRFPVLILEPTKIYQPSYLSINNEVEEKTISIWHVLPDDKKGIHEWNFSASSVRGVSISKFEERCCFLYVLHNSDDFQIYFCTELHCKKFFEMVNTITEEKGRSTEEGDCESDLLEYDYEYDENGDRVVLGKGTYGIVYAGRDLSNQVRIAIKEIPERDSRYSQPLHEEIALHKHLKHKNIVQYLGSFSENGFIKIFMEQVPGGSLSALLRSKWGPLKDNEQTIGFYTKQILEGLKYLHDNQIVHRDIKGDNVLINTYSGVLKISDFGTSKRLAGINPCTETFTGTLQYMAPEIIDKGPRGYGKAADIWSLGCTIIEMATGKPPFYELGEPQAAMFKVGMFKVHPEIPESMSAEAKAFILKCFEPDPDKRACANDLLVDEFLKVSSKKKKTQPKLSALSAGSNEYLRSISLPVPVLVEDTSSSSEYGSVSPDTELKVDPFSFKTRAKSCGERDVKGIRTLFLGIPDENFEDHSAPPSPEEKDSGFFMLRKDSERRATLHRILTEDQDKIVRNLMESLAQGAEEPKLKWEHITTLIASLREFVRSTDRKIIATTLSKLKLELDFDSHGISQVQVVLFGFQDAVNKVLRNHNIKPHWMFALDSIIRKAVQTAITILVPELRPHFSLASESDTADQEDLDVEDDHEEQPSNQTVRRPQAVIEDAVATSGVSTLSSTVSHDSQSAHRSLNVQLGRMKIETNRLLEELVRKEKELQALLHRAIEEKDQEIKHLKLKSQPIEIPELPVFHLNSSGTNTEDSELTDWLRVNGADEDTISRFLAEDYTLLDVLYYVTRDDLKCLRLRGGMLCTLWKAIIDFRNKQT
Protocol: ASK1/MAP3K5 was used as the protein kinase and 20 μM of myelin basic protein (MBP) and 10 μM ATP were used as the substrate.

ASK1 T838 auto phosphorylation in HEK-293T cells, sequence (Q99683 whole entry): as above

## COCCOc1cc2c(cc1F)OCCCCn1cnnc1-c1cccc(n1)NC2=O [Example 75, 5^4-Fluoro-5^5-(2-methoxyethoxy)-1^4H-6-oxa-3-aza-2(2,6)-pyridina-1(3,4)-triazola-5(1,2)-benzenacyclodecaphan-4-one]
[1]
  pIC50: > 6.00
[2]
  pIC50: > 7.00

## Cc1c(-c2cc3c(cc2F)OCCCCn2cnnc2-c2cccc(n2)NC3=O)cnn1C [Example 62, 5^5-(1,5-Dimethyl-1H-pyrazol-4-yl)-5^4-fluoro-1^4H-6-oxa-3-aza-2(2,6)-pyridina-1(3,4)-triazola-5(1,2)-benzenacyclodecaphan-4-one]
[1]
  pIC50: > 6.00
[2]
  pIC50: > 7.00

## CN(C)CCn1cc(-c2cc3c(cc2F)OCC/C=C/Cn2cnnc2-c2cccc(n2)NC3=O)cn1 [Example 178, (E)-5^5-(1-(2-(Dimethylamino)ethyl)-1H-pyrazol-4-yl)-5^4-fluoro-1^4H-6-oxa-3-aza-2(2,6)-pyridina-1(3,4)-triazola-5(1,2)-benzenacycloundecaphan-9-en-4-one]
[1]
  pIC50: > 6.00
[2]
  pIC50: > 7.00

## C[C@H]1CCCOc2cc(F)c(Br)cc2C(=O)Nc2cccc(n2)-c2nncn21 [Example 101, (S)-5^5-Bromo-5^4-fluoro-10-methyl-1^4H-6-oxa-3-aza-2(2,6)-pyridina-1(3,4)-triazola-5(1,2)-benzenacyclodecaphan-4-one]
[1]
  pIC50: > 6.00
[2]
  pIC50: > 7.00

## O=C1Nc2cccc(n2)-c2nncn2C/C=C\CCOc2cc(F)c(-c3ccncc3)cc21 [Example 180, (Z)-5^4-Fluoro-5^5-(pyridin-4-yl)-1^4H-6-oxa-3-aza-2(2,6)-pyridina-1(3,4)-triazola-5(1,2)-benzenacycloundecaphan-9-en-4-one]
[1]
  pIC50: > 6.00
[2]
  pIC50: > 7.00

## Cc1ccn(-c2ccc3c(c2)C(=O)Nc2cccc(n2)-c2nncn2CCCCO3)n1 [Example 45, 5^5-(3-Methyl-1H-pyrazol-1-yl)-1^4H-6-oxa-3-aza-2(2,6)-pyridina-1(3,4)-triazola-5(1,2)-benzenacyclodecaphan-4-one]
[1]
  pIC50: > 6.00
[2]
  pIC50: > 7.00

## O=C1Nc2cccc(n2)-c2nncn2CCCCOc2c(Br)cccc21 [Example 165, 5^3-Bromo-1^4H-6-oxa-3-aza-2(2,6)-pyridina-1(3,4)-triazola-5(1,2)-benzenacyclodecaphan-4-one]
[1]
  pIC50: 5.00 to 6.00
[2]
  pIC50: 6.00 to 7.00

## O=C1Nc2cccc(n2)-c2nncn2CCCCOc2cc(F)c(-c3ccnc(C4CC4)c3)cc21 [Example 56, 5^5-(2-Cyclopropylpyridin-4-yl)-5^4-fluoro-1^4H-6-oxa-3-aza-2(2,6)-pyridina-1(3,4)-triazola-5(1,2)-benzenacyclodecaphan-4-one]
[1]
  pIC50: > 6.00
[2]
  pIC50: > 7.00

## (R)-5^4-Bromo-10-methyl-1^4H-6-oxa-3-aza-2(2,6)-pyridina-1(3,4)-triazola-5(1,2)-benzenacyclodecaphan-4-one [Example 121]
[1]
  pIC50: < 5.00
[2]
  pIC50: 5.00 to 6.00

## C[C@H]1CCCn2cnnc2-c2cccc(n2)NC(=O)c2cc(-c3cnn(CCN(C)C)c3)ccc2O1 [Example 146, (S)-5^5-(1-(2-(Dimethylamino)ethyl)-1H-pyrazol-4-yl)-7-methyl-1^4H-6-oxa-3-aza-2(2,6)-pyridina-1(3,4)-triazola-5(1,2)-benzenacyclodecaphan-4-one]
[1]
  pIC50: > 6.00
[2]
  pIC50: > 7.00

## O=C1Nc2cccc(n2)-c2nncn2CCCCOc2cc(F)c(N3CC4CC(C3)O4)cc21 [Example 72, 5^5-(6-Oxa-3-azabicyclo[3.1.1]heptan-3-yl)-5^4-fluoro-1^4H-6-oxa-3-aza-2(2,6)-pyridina-1(3,4)-triazola-5(1,2)-benzenacyclodecaphan-4-one]
[1]
  pIC50: > 6.00
[2]
  pIC50: > 7.00

## C[C@H]1CCOc2cc(F)c(Br)cc2C(=O)Nc2cccc(n2)-c2nncn2C1 [Example 124, (S)-5^5-Bromo-5^4-fluoro-9-methyl-1^4H-6-oxa-3-aza-2(2,6)-pyridina-1(3,4)-triazola-5(1,2)-benzenacyclodecaphan-4-one]
[1]
  pIC50: > 6.00
[2]
  pIC50: > 7.00
